Assay results published in ChEMBL document CHEMBL2069291, “Orally available pyridinylpyrimidine derivatives as novel RANKL-induced osteoclastogenesis inhibitors” (Bioorg Med Chem Lett, 2012).

Tests used:
[1] = Cmax in ovariectomized Wistar rat at 3 mg/kg, po administered as single dose; type: ADME, organism-based; set-up: dose 3 mg/kg, route oral; details: female, in vivo
[2] = Permeability of the compound by PAMPA assay; type: ADME; details: read-out: permeability
[3] = AUC (0 to infinity) in female C57BL/6 mouse at 3 mg/kg, po administered as single dose; type: ADME, organism-based; set-up: dose 3 mg/kg, route oral, time infinity; details: plasma
[4] = Solubility in phosphate buffer at pH 6.8; type: physicochemical
[5] = AUC (0 to infinity) in ovariectomized Wistar rat at 3 mg/kg, po administered as single dose; type: ADME, organism-based; set-up: dose 3 mg/kg, route oral, time infinity; details: female, plasma
[6] = Cmax in female C57BL/6 mouse at 3 mg/kg, po administered as single dose; type: ADME, organism-based; set-up: dose 3 mg/kg, route oral; details: in vivo
[7] = Cmax in female C57BL/6 mouse at 1 mg/kg, po administered as single dose; details: in vivo
[8] = AUC (0 to infinity) in female C57BL/6 mouse at 1 mg/kg, po administered as single dose; details: plasma

| Cmax [1] | Papp [2] | AUC(0-inf) [3] | solubility [4] | AUC(0-inf) [5] | Cmax [6] | Cmax [7] | AUC(0-inf) [8] | SMILES |
| --- | --- | --- | --- | --- | --- | --- | --- | --- |
| 49 ng/mL | > 30 ×10⁻⁶ cm/s | 240 ng·h/mL | > 25 µg/mL | 151 ng·h/mL | 130 ng/mL | – | – | COc1cnc(-c2ccccn2)nc1NCc1ccccc1F |
| 135 ng/mL | > 30 ×10⁻⁶ cm/s | 188 ng·h/mL | > 25 µg/mL | 542 ng·h/mL | 98 ng/mL | – | – | COc1cnc(-c2ccccn2)nc1NCc1c(F)cc(F)cc1F |
| – | – | – | – | – | – | 7 ng/mL | 15 ng·h/mL | COc1cnc(-c2ccccn2)nc1N1CCCC1 |
| 156 ng/mL | > 30 ×10⁻⁶ cm/s | 1020 ng·h/mL | > 25 µg/mL | 943 ng·h/mL | 599 ng/mL | – | – | COc1cnc(-c2ccccn2)nc1NCc1ccc(F)cc1C(F)(F)F |
